SMILES strings stand for the structures. pIC50: −log10 of the molar value. Activity calls are given as the source filed them.

In series [1] the test system is GTPase KRas (Homo sapiens), P01116 [G12C]. Briefly: Binding affinity to KRAS G12C mutant (unknown origin) assessed as covalent modification at 5 uM after 3 hrs by LC-MS analysis relative to control.
A further series deals with GTPase KRas (Homo sapiens, UniProt P01116, G12C). The series can be described thus: Inhibition of KRAS G12C mutant in human NCI-H358 cells assessed as reduction in ERK phosphorylation measured after 3 hrs by Western blot analysis. The format is cell-based. For orientation: In western blotting, separated proteins are transferred to a membrane and probed.
Chain of GTPase KRas (P01116 whole entry G12C): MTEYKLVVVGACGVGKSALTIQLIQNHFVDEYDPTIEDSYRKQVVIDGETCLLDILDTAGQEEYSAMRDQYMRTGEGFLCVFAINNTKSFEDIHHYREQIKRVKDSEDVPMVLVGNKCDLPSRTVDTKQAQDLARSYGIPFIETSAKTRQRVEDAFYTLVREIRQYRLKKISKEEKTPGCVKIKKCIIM
Series [2] deals with GTPase KRas (Homo sapiens), P01116 [G12C]. The series can be described thus: Binding affinity to KRAS G12C mutant (unknown origin) assessed as covalent modification at 3 uM after 15 mins by LC-MS analysis relative to control.
Series [3] deals with MDR1. The series can be described thus: Apparent permeability across apical to basolateral side in pig LLC-PK1 cells expressing MDR1 at 1 uM. The format is ADME, cell-based, Sus scrofa.
Series [4] has as its system MDR1. The series can be described thus: Apparent permeability across basolateral to apical side in pig LLC-PK1 cells expressing MDR1 at 1 uM. The class given is ADME, cell-based, Sus scrofa.
Series [5] is described as follows: Protein binding in CD-1 mouse plasma at 1 uM by equilibrium dialysis method. The class given is ADME, cell-free. Conditions: read-out: PPB (converted). Background: In equilibrium dialysis free small molecules cross a membrane that holds back macromolecules.
Series [6] in a line: Clearance in CD-1 mouse at 3 mg/kg, iv. Conditions: in vivo. The format is ADME, organism-based.
Series [7] is described as follows: Half life in CD-1 mouse at 3 mg/kg, iv. The format is ADME, organism-based. Conditions: in vivo.
Series [8] is described as follows: Volume of distribution at steady state in CD-1 mouse at 3 mg/kg, iv. The class given is ADME, organism-based. The conditions noted are these: in vivo, read-out: Vdss.
The nature of series [9]: Cmax in CD-1 mouse at 100 mg/kg, po. Further details: dose 100 mg/kg, route oral. The conditions noted are these: in vivo. The class given is ADME, organism-based.
Series [10] in a line: Tmax in CD-1 mouse at 100 mg/kg, po. The format is ADME, organism-based. Conditions: in vivo.
The nature of series [11]: AUC (infinity) in CD-1 mouse at 100 mg/kg, po. The class given is ADME, organism-based. Further details: dose 100 mg/kg, time infinity, route oral. Conditions: in vivo.
Series [12] can be described thus: Oral bioavailability in CD-1 mouse at 100 mg/kg. The format is ADME, organism-based. Conditions: in vivo.
Series [13] can be described thus: Plasma concentration in CD-1 mouse at 15 mg/kg, ip measured after 0.5 hrs. The format is ADME, organism-based.
A short description of series [14]: Plasma concentration in CD-1 mouse at 15 mg/kg, ip measured after 1 hr. The class given is ADME, organism-based.
Series [15] is described as follows: Plasma concentration in CD-1 mouse at 15 mg/kg, ip measured after 3 hrs. Conditions: in vivo, BLD = below limit of detection. The format is ADME, organism-based.
Series [16] is described as follows: Plasma concentration in CD-1 mouse at 50 mg/kg, ip measured after 0.5 hrs. The format is ADME, organism-based.
Series [17] can be described thus: Plasma concentration in CD-1 mouse at 50 mg/kg, ip measured after 1 hr. The format is ADME, organism-based.
Series [18] can be described thus: Plasma concentration in CD-1 mouse at 50 mg/kg, ip measured after 3 hrs. The format is ADME, organism-based.
Series [19] in a line: Plasma concentration in CD-1 mouse at 100 mg/kg, ip measured after 0.5 hrs. The format is ADME, organism-based.
A short description of series [20]: Plasma concentration in CD-1 mouse at 100 mg/kg, ip measured after 1 hr. The format is ADME, organism-based.
The nature of series [21]: Plasma concentration in CD-1 mouse at 100 mg/kg, ip measured after 3 hrs. The format is ADME, organism-based.
The nature of series [22]: Plasma concentration in CD-1 mouse at 100 mg/kg, ip measured after 6 hrs. The format is ADME, organism-based.
For series [23], the system named is MIA PaCa-2. Briefly: Antitumor activity against human MIAPaCa2 cells xenografted in nude-Fox1nu mouse assessed as tumor regression at 30 to 100 mg/kg, ip administered once daily for 5 days. The format is functional, organism-based.
The test system of series [24] is MIA PaCa-2. Briefly: Antitumor activity against human MIAPaCa2 cells xenografted in nude-Fox1nu mouse assessed as reduction in tumor volume at 30 to 100 mg/kg, ip administered once daily for 17 days measured three times a week during compound dosing. The class given is functional, organism-based.
Series [25] can be described thus: Toxicity in nude-Fox1nu mouse xenografted with human MIAPaCa2 cells assessed as body weight loss at 30 to 100 mg/kg, ip administered once daily for 17 days measured 2 times a week during compound dosing. The class given is organism-based. The conditions noted are these: in vivo, 408 h.
Series [26] can be described thus: Toxicity in nude-Fox1nu mouse xenografted with human MIAPaCa2 cells assessed as adverse effect at 30 to 100 mg/kg, ip administered once daily for 17 days measured during compound dosing. The conditions noted are these: in vivo, 408 h. The format is organism-based. A general note: A xenograft is tissue or cells of one species grown in another, often human tumour cells in immunodeficient mice.

Series [27] relates to Mus musculus. The series can be described thus: Ex vivo inhibition of KRAS G12C mutant in human MIAPaCa2 cells xenografted in nude-Fox1nu mouse assessed as target engagement in tumor at 30 to 100 mg/kg, ip administered once daily for 1 day measured 3 to 24 hrs post dose relative to control. The class given is functional. Further details: scale not given: the % may be the effect or the level left.

Series [28] relates to Mus musculus. The series can be described thus: Ex vivo inhibition of KRAS G12C mutant in human MIAPaCa2 cells xenografted in nude-Fox1nu mouse assessed as target engagement in tumor at 30 to 100 mg/kg, ip administered once daily for 5 days measured 3 to 24 hrs post dose relative to control. The class given is functional. Further details: scale not given: the % may be the effect or the level left.

Chain of GTPase KRas (Homo sapiens), P01116 [G12C] (P01116 whole entry G12C): as above

By pIC50 is commonly meant −log10 of the IC50, conventionally taken in molar units. Regarding `C=CC(=O)N1CCN(c2ncnc3c2CCN(c2cc(O)cc4ccccc24)C3)CC1`, the Activity was determined as 99% in [1] and 8% in [2]. For the same compound, the pIC50 at GTPase KRas is 5.12.

In the case of `C=CC(=O)N1CCN(c2ncnc3c2CCN(c2c(O)cccc2F)C3)CC1`, the Activity in series [1] was 2%. Further, the pIC50 at GTPase KRas was below 4.80.

As to `C=CC(=O)N1CCN(c2ncnc3c2CCN(c2cc(O)ccc2F)C3)CC1`, the Activity in series [1] was found to be 2%. The pIC50 at GTPase KRas was below 4.80.

Regarding `C=CC(=O)N1CCN(c2nc(O[C@@H](C)CN(C)C)nc3c2CCN(c2cc(O)cc4ccccc24)C3)CC1`, the negative logarithm of the IC50 (pIC50) on GTPase KRas was 6.27. In addition, in series [2], the Activity amounted to 21%.

In the case of `C=CC(=O)N1CCN(c2nc(OCCN(C)C)nc3c2CCN(c2cc(O)cc4ccccc24)C3)CC1`, on GTPase KRas, the pIC50 is 5.72. The Activity in [2] came out at 52%.

For `C=CC(=O)N1CCN(c2ncnc3c2CCN(c2cccc4ccccc24)C3)CC1`, in [1], the Activity amounted to 13%. The pIC50 on GTPase KRas was below 4.80.

As to `C=CC(=O)N1CCN(c2ncnc3c2CCN(c2cccc4ccc(O)cc24)C3)CC1`, the Activity in [1] worked out at 0%. Further, the pIC50 on GTPase KRas was below 4.80.

As a reminder, the Papp A→B is how fast a substance crosses the layer from the apical side. What is called Papp B→A is the apparent permeability from the basolateral to the apical side of a cell layer. One may read the clearance as a measure of how efficiently the substance is removed, as volume per time. One may read the half-life as the time needed for the level to fall by half in the phase considered. As a reminder, the Cmax is the highest concentration seen after dosing. Usually Tmax stands for the time at which the peak concentration occurs. A word on the AUC(0-inf): it is total exposure, with the tail of the curve extrapolated. For orientation: bioavailability means the share of a dose that reaches the circulation, judged against a reference dose that is usually intravenous. As for `C=CC(=O)N1CCN(c2nc(OC[C@@H]3CCCN3C)nc3c2CCN(c2cc(O)cc4ccccc24)C3)CC1`, the Activity was 84% in series [2]; “Non-Toxic” in series [25]; “Non-Toxic” in [26]; above 65% in the series on Mus musculus [27]; above 65% in the series on Mus musculus [28]. Further, the Papp A→B at 1 µM in the series with MDR1 [3] turned out to be 1.4 ×10⁻⁶ cm/s. In the series with MDR1 [4], the Papp B→A at 1 µM came to 37 ×10⁻⁶ cm/s. Also, the fraction unbound at 1 µM in series [5] is 0.05. The compound also returned a clearance in [6] of 46 mL/min/kg. The compound further had a half-life in [7] of 57.6 min. Besides, in series [8], the Vd stood at 0.53 L/kg. This compound also gave a Cmax in series [9] of 590 ng/mL. Also, the Tmax in series [10] is 60 min. In series [11], this compound yielded an AUC(0-inf) of 880 ng·h/mL. The same compound came in with a bioavailability in [12] of 2.4%. For the same compound, the concentration at 0.5 h in series [13] came out at 1500 ng/mL; in series [16], 8300 ng/mL; in series [19] it was 26000 ng/mL. For the same compound, the concentration at 1 h in [14] came to 970 ng/mL; in [17], 2600 ng/mL; in series [20] it was 17000 ng/mL. In addition, the Cp entry in [15] is on record as “Bld”. Also, the concentration at 3 h stood at 250 ng/mL in series [18] and 1400 ng/mL in series [21]. Also, the concentration at 6 h in [22] is 1300 ng/mL. Besides, the result in the series on MIA PaCa-2 [23] and in the series with MIA PaCa-2 [24] was Active.

Take `C=CC(=O)N1CCN(c2ncnc3c2CCN(c2c(C)ccc4[nH]ncc24)C3)CC1`: the Activity in series [1] worked out at 22%. Further, the pIC50 at GTPase KRas is below 4.80.

Regarding `C=CC(=O)N1CCN(c2nc(OCCCN(C)C)nc3c2CCN(c2cc(O)cc4ccccc24)C3)CC1`, the pIC50 at GTPase KRas is 5.82. Further, the Activity in series [2] came out at 22%.

The record behind these values is ChEMBL document CHEMBL4325929, “Discovery of Tetrahydropyridopyrimidines as Irreversible Covalent Inhibitors of KRAS-G12C with In Vivo Activity” (ACS Med Chem Lett, 2018).
